Measurements taken from patent US20130330749A1, “METHOD AND APPARATUS FOR DETECTING LIVER DISEASE, AND METHOD FOR ASSAYING PHARMACEUTICAL PREPARATION” (priority 2008, published 2013).

How the values were obtained:
[1] = target: T1, γ-glutamyl cysteine synthase (GCS) (Mus musculus, UniProt P97494); assay: Administration of GCS inhibitor BSO and GCS activator DEM to mice; metabolites in liver and serum measured by CE-TOFMS; format: in vivo; settings: intraperitoneal 4 mmol/kg
T1 construct: Liver specimens (about 300 mg) were excised from the mice 1 hour after administration; from tissue; host or cells: mouse liver (in vivo, intraperitoneal dosing); serum also measured
T1 sequence (P97494 1-637): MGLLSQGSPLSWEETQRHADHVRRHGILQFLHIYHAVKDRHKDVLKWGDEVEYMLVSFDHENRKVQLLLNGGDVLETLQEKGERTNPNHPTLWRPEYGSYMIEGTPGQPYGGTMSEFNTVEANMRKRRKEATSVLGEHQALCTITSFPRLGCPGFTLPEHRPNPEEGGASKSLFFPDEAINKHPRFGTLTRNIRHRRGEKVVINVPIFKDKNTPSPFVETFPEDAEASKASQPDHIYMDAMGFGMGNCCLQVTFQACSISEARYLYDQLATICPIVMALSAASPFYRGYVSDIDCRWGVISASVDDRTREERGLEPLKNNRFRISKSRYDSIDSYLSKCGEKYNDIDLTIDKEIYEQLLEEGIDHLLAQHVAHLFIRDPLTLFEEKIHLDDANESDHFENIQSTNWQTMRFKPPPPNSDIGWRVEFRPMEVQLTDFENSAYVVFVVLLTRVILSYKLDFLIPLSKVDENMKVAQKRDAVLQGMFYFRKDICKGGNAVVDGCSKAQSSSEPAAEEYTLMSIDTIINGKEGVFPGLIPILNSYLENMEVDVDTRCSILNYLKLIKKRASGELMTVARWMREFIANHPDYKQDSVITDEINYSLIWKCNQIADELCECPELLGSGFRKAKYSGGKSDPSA
T1 sequence (O09172 1-274 partner): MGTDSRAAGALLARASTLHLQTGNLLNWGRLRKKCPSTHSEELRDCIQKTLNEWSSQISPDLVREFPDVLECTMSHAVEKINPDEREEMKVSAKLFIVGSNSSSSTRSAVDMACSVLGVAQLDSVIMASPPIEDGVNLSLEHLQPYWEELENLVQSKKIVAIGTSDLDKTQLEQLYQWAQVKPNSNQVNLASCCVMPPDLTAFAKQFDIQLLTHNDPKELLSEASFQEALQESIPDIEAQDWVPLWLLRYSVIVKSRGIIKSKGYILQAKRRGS
From the text: The biosynthesis mechanism of γ-Glu-X peptides was elucidated using a mouse. As shown in FIG. 1(B), the following biosynthesis mechanism of γ-Glu-X peptides was found. That is, the oxidative stress condition caused by active oxygen and electrophiles causes depletion of glutathione, which is used for removing these substances, and this depletion leads to activation of γ-glutamyl cysteine synthase (GCS). Then, γ-Glu-X dipeptides and γ-Glu-X-Gly tripeptides are biosynthesized by using various amino acids as substrates (starting materials). The experimental procedures are described below.
Male mice were fasted overnight and anesthetized by an intraperitoneal injection of pentobarbital sodium (60 mg/Kg of body weight). Then, the mice were intraperitoneally injected with BSO, which is a γ-glutamyl cysteine synthase (GCS) inhibitor, and diethylmaleate (DEM), which is an electrophile (GCS activator), both at a dose of 4 mmol/kg of body weight (888 mg of BSO, 688 mg of DEM). The mouse as a healthy subject was intraperitoneally injected with physiological saline. Liver specimens (about 300 mg) were excised from the mice 1 hour after administration (5 times each).
The liver specimens (about 300 mg) excised from the mice were immediately placed in 1 ml of methanol containing an internal standard substance and were homogenized to inactivate an enzyme, thereby stopping enhancement of metabolism. After 500 μl of pure water was added to the mixture, 300 μl of solution was taken out. To this solution, 200 μl of chloroform was added. After thorough stirring, the solution was further centrifuged at 15000 rpm for 15 minutes at 4° C. After allowing to stand, 300 μl of separated water-methanol phase was passed through a 5 kDa molecular weight cutoff filter for centrifugal ultrafiltration to deproteinize it. The filtrate was lyophilized and 50 μl of Milli-Q water was added thereto. The mixture was subjected to a CE-TOFMS measurement.
The method described below was used to confirm that the detected γ-Glu-X peptides and γ-Glu-X-Gly peptides were synthesized in a glutathione-biosynthesis pathway. […]

glutathione = settings: mouse, large quantities of APAP, cited from earlier work

amount of glutathione in the livers ([1]; liver 1 hour after administration, compared to the healthy (saline) mouse) | γ-Glu-X and γ-Glu-X-Gly peptidic substances in the liver other than γ-Glu-Cys, GSH and γ-Glu-Ser-Gly ([1]; liver 1 hour after administration, compared to the healthy subject) | γ-Glu-2AB and ophthalmic acid (γ-Glu-2AB-Gly) in the murine serum ([1]; serum, compared to the normal state) | SMILES | ophthalmic acid level (glutathione; in inverse proportion to the glutathione level) | glutathione level (glutathione)
decreased rapidly | decreased | decreased | CCCCS(=N)(=O)CCC(N)C(=O)O (centres unmarked) [BSO] | – | –
– | – | – | CC(=O)Nc1ccc(O)cc1 [APAP, Acetaminophen] | increased rapidly | decreased
